From article PMC12682859, “Interconnected roles of mitochondrial carrier proteins ANT, PiT, and UCPs in proton transport” (Frontiers in Molecular Biosciences, 2025)

T1: UCP4:ANT1 heterotetramer (1:1) (Homo sapiens; Bos taurus, UniProt O95847+P02722)
T1 construct: gene SLC25A27; co-reconstituted 1:1 in liposomes from purified N-terminally His6-tagged monomers (bovine ANT1, human UCP4); heterotetramer
T1 sequence (O95847 1-323): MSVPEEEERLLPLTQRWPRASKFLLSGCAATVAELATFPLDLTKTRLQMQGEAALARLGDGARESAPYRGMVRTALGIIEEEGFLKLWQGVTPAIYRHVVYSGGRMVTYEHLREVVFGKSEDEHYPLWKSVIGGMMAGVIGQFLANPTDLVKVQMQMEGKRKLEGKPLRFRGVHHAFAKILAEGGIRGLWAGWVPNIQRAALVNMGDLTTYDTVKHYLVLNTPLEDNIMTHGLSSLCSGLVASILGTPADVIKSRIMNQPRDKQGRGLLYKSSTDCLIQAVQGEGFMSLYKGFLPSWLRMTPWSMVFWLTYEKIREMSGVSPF
T1 sequence (P02722 2-298): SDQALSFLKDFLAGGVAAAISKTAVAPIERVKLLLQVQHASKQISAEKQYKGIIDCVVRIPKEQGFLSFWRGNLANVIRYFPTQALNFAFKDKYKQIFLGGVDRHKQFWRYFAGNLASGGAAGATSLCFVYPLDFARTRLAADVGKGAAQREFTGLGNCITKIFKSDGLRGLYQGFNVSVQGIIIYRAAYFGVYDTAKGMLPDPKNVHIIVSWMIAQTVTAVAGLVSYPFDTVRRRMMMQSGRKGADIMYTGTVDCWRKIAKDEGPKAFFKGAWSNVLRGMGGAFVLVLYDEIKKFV

T2: UCP2:ANT1 heterotetramer (1:1) (Homo sapiens; Bos taurus, UniProt P02722+P55851)
T2 construct: co-reconstituted 1:1 in liposomes from purified N-terminally His6-tagged monomers (bovine ANT1, human UCP2); heterotetramer
T2 sequence (P55851 1-309): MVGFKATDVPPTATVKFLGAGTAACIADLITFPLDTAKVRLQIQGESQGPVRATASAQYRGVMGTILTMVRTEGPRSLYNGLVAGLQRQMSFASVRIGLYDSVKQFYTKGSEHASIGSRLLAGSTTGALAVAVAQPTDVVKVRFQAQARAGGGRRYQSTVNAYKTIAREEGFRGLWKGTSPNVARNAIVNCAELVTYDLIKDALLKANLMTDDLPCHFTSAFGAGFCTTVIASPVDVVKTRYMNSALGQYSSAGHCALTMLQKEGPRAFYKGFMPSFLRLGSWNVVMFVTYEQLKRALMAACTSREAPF
T2 sequence (P02722 2-298): T1 sequence (P02722 2-298)

T3: ANT1 (Bos taurus, UniProt P02722)
T3 sequence (P02722 2-298): T1 sequence (P02722 2-298)

T4: PiT (PiT-B) (Homo sapiens, UniProt Q00325)
T4 construct: gene SLC25A3; isoform B, N-terminal His6 tag kept, pelB leader removed; E. coli membranes; mainly monomer in liposomes
T4 sequence (Q00325 50-361 isoform Q00325-2): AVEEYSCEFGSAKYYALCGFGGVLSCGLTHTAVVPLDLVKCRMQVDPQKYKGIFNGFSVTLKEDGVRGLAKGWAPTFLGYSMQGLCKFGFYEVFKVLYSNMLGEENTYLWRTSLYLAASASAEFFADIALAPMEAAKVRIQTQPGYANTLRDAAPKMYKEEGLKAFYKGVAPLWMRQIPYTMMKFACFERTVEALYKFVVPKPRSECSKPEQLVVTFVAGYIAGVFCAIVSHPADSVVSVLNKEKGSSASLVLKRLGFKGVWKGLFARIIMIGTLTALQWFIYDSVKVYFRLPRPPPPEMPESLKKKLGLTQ

T5: UCP2 (Homo sapiens, UniProt P55851)
T5 construct: full length, N-terminal His6 tag kept, pelB leader removed; E. coli membranes; homotetramer in liposomes
T5 sequence (P55851 1-309): T2 sequence (P55851 1-309)

T6: UCP4 (Homo sapiens, UniProt O95847)
T6 construct: gene SLC25A27; full length, N-terminal His6 tag kept, pelB leader removed; E. coli membranes; homotetramer in liposomes
T6 sequence (O95847 1-323): T1 sequence (O95847 1-323)

B1: uncoupling protein 2 (UCP2), recombinant His6-tagged (natural protein, human, UniProt P55851 1-309, looked up)
chain: T2 sequence (P55851 1-309)
notes: human UCP2, UniProt P55851; Cloned in pET26b(+); purified as a monomer in OG, tetramer after reconstitution in liposomes; source: E. coli BL21 (DE3) or BL21 CodonPlus (DE3)-RIPL, extracted from bacterial membranes, purified (Ni-NTA IMAC, 1% OG); not shown: pelB leader, N-terminal, cleaved; His6, N-terminal, kept
B2: uncoupling protein 4 (UCP4), recombinant His6-tagged (natural protein, human, UniProt O95847 1-323, looked up)
chain: T1 sequence (O95847 1-323)
notes: human UCP4, UniProt O95847; Cloned in pET26b(+); purified as a monomer in OG, tetramer after reconstitution in liposomes; source: E. coli BL21 (DE3) or BL21 CodonPlus (DE3)-RIPL, extracted from bacterial membranes, purified (Ni-NTA IMAC, 1% OG); not shown: pelB leader, N-terminal, cleaved; His6, N-terminal, kept
B3: adenine nucleotide translocase 1 (ANT1), recombinant His6-tagged (natural protein, bovine)
chain: T1 sequence (P02722 2-298)
notes: bovine ANT1, UniProt P02722; Cloned in pET26b(+); also called ADP/ATP carrier; AAC; source: E. coli BL21 (DE3) or BL21 CodonPlus (DE3)-RIPL, extracted from bacterial membranes, purified (Ni-NTA IMAC, 1% OG); not shown: pelB leader, N-terminal, cleaved; His6, N-terminal, kept

What was measured:
[1] = target: T1, UCP4:ANT1 heterotetramer (1:1); format: biochemical; conditions: 500 uM ATP; EYPC without added cardiolipin, 100 uM palmitic acid, valinomycin, pH 7.2, 25 C
[2] = target: T2, UCP2:ANT1 heterotetramer (1:1); format: biochemical; conditions: 500 uM ATP; EYPC without added cardiolipin, 100 uM palmitic acid, valinomycin, pH 7.2, 25 C
ANT1 [3] = target: T3, ANT1; design: gene SLC25A4; conditions: 500 uM ATP; EYPC without added cardiolipin, 100 uM palmitic acid, valinomycin, pH 7.2, 25 C
PiT (PiT-B) = target: T4, PiT (PiT-B); assay: SPQ fluorescence proton efflux in proteoliposomes; format: biochemical; conditions: EYPC liposomes, valinomycin, pH 7.2, 25 C
UCP2 [4] = target: T5, UCP2; assay: SPQ fluorescence proton efflux in proteoliposomes; format: biochemical; conditions: EYPC liposomes, valinomycin, pH 7.2, 25 C
UCP4 [5] = target: T6, UCP4; assay: SPQ fluorescence proton efflux in proteoliposomes; format: biochemical; conditions: EYPC liposomes, valinomycin, pH 7.2, 25 C
ANT1 [6] = target: T3, ANT1; assay: SPQ fluorescence proton efflux in proteoliposomes; format: biochemical; design: gene SLC25A4; full length, N-terminal His6 tag kept, pelB leader removed; E. coli membranes; mainly monomer in liposomes; conditions: EYPC liposomes, valinomycin, pH 7.2, 25 C
UCP4 [7] = target: T6, UCP4; assay: SPQ fluorescence proton efflux in proteoliposomes; format: biochemical; conditions: 500 uM GTP; EYPC with or without 2.5% cardiolipin, 100 uM palmitic or oleic acid, valinomycin, pH 7.2, 25 C
UCP2 [8] = target: T5, UCP2; assay: SPQ fluorescence proton efflux in proteoliposomes; format: biochemical; conditions: 500 uM GTP; EYPC with or without 2.5% cardiolipin, 100 uM palmitic or oleic acid, valinomycin, pH 7.2, 25 C
[9] = target: B2; assay: semi-native SDS-PAGE; two purified monomeric proteins co-reconstituted 1:1 in liposomes (UCP4:ANT1 also 3:1 and 1:3), regardless of lipid composition (EYPC with or without 2.5% CL); Coomassie staining; conditions: both partners purified
[10] = target: the molecule itself; assay: semi-native SDS-PAGE; single purified protein reconstituted in liposomes of egg yolk extract (EYPC, ~60% PC) without added cardiolipin; 0.1% SDS in gel and running buffer, samples not heated; Coomassie staining
[11] = target: B1; assay: semi-native SDS-PAGE; two purified monomeric proteins co-reconstituted 1:1 in liposomes (UCP4:ANT1 also 3:1 and 1:3), regardless of lipid composition (EYPC with or without 2.5% CL); Coomassie staining; conditions: both partners purified
[12] = 100 uM palmitic acid as activator

For Nc1ncnc2c1ncn2[C@@H]1O[C@H](COP(=O)(O)OP(=O)(O)OP(=O)(O)O)[C@@H](O)[C@H]1O [ATP], the “% inhibition at 500 uM” value [1] was “ATP significantly inhibited combinations of UCP2 or UCP4 with ANT1”, the “% inhibition at 500 uM” value [2] was “ATP significantly inhibited combinations of UCP2 or UCP4 with ANT1” and the “% inhibition at 500 uM” value (ANT1 [3]) was “proton transport was inhibited by ATP more effectively than by GTP”.

CCCCCCCC/C=C\CCCCCCCC(=O)O [OA, oleic acid] was tested, and the “SPQ fluorescence proton efflux in proteoliposomes” value (“SPQ fluorescence proton efflux” below) (PiT (PiT-B); 100 uM oleic acid as activator) was “For each individual protein, OA was a significantly more potent activator than PA”, the “fatty acid-activated proton efflux (qualitative)” value (UCP2 [4]; 100 uM oleic acid as activator) was “For each individual protein, OA was a significantly more potent activator than PA” and the “SPQ fluorescence proton efflux” value (UCP4 [5]; 100 uM oleic acid as activator) was “For each individual protein, OA was a significantly more potent activator than PA”. The “fatty-acid-activated proton transport (qualitative finding)” value (ANT1 [6]; 100 uM oleic acid as activator) was “For each individual protein, OA was a significantly more potent activator than PA”.

Nc1nc2c(ncn2[C@@H]2O[C@H](COP(=O)(O)OP(=O)(O)OP(=O)(O)O)[C@@H](O)[C@H]2O)c(=O)[nH]1 [GTP] was tested, and the “% inhibition at 500 uM” value (UCP4 [7]) was “GTP is overall a more effective inhibitor than ATP of UCP2 and UCP4” and the “% inhibition at 500 uM” value (UCP2 [8]) was “GTP is overall a more effective inhibitor than ATP of UCP2 and UCP4”.

CCCCCCCCCCCCCCCC(=O)O [PA, palmitic acid] was tested, and the “SPQ fluorescence proton efflux” value (PiT (PiT-B); [12]) was “both OA and PA interacted with all proteins and their combinations”, the “fatty acid-activated proton efflux (qualitative)” value (UCP2 [4]; [12]) was “both OA and PA interacted with all proteins and their combinations” and the “SPQ fluorescence proton efflux” value (UCP4 [5]; [12]) was “both OA and PA interacted with all proteins and their combinations”. For the same molecule, the “fatty-acid-activated proton transport (qualitative finding)” value (ANT1 [6]; [12]) was “both OA and PA interacted with all proteins and their combinations”.

B1 was tested, and the binding result [9] was “binds” and the “stoichiometry N” value [10] was 4.

For B2, the “stoichiometry N” value [10] was 4.

With B3 the binding result [9] was “binds”, the binding result [11] was “binds” and the “stoichiometry N” value [10] was 2.
